# Measured values: patent US10294244B2, “2,3-dihydro-thiazolo[3,2-A]pyridin-5-one derivatives, intermediates thereof, and their use as antibacterial agents” (Quretech Bio AB, priority 2014, dated 2019)
# Test system: C. trachomatis serovar LGV-L2
# Test: Inhibition of infectious Chlamydia progenies (C. trachomatis infectivity, reinfection of HeLa cells, IFU count)
# Assay type: cell-based
# Details: infected HeLa cells, MOI 0.3, compound added 1 hpi, 44-48 h, relative to DMSO-treated control; for inhibition at 2.5 µM: 2.5 uM compound; for inhibition at 10 µM: 10 uM compound
# Procedure: Cell Culture, C. trachomatis Infections, and Determination of C. trachomatis Infectivity.
# HeLa cells were infected with C. trachomatis serovar LGV-L2 at an MOI of 0.3. At 1 hpi, RPMI media containing the different dilutions of the tested compounds in DMSO were added. The different compounds were dissolved to 20 mM in DMSO and were then diluted with RPMI media to be added at 2.5 to 100 μM. After 44-48 h incubation, the cells were osmotically lysed by the addition of cold sterile distilled water to release infectious EB progeny. 5×SPG was added to equalize the osmotic pressure to a 1×SPG isotonic condition. An equal amount of HBSS (Hanks balanced salt solution) (Gibco/Invitrogen) was added to the lysate (yielding a 1:1 dilution) and 10-fold serial dilutions of the resulting mixture was used to infect fresh HeLa cells. At 1 hpi, the inoculum was replaced with RPMI media and the infection allowed to progress for 44-48 hours before fixation and staining. Fixation was performed by adding methanol for 5 minutes and the cells were subsequently washed with phosphate buffered saline (PBS). The chlamydial inclusions were stained by a primary rabbit anti-Chlamydia antibody (generated in-house) and a secondary donkey anti-rabbit FITC-labelled antibody (Jackson ImmunoResearch). The DNA of the cells and Chlamydia was stained by the addition of DAPI. The stained cells were analyzed by an ArrayScan automated scanner (ArrayScan VTI HCS, Thermo Scientific). Data were presented as the relative numbers of IFUs in treated infections compared to the numbers of IFUs in DMSO-treated control infections.
# The compounds of Examples 1-33 were tested for inhibition of infectious Chlamydia progenies at concentrations of 2.5 μM, 10 μM, 50 μM and 100 μM. In this document μM stands for micromolar. The compounds of the present disclosure were considered to have antibacterial activity if they provided 50% or more inhibition of infectious Chlamydia progenies using at least one of the tested concentrations in Table 1.
SMILES,inhibition at 2.5 µM,inhibition at 10 µM,inhibition at 50 µM (50 uM compound)
"COc1c(Cc2cccc3ccccc23)cc(=O)n2c1SC[C@H]2C(=O)Nc1ccccc1 [Example 1, {(3R)-7-Methoxy-6-[(1-naphthyl)methyl]-4-oxo-1-thia-3a-aza-3-indanyl}anilinoformaldehyde]",100%,–,–
"COc1c(Cc2cccc(C)c2C)cc(=O)n2c1SC[C@H]2C(=O)Nc1cc(C)cc(F)c1 [Example 4, {(3R)-7-Methoxy-4-oxo-6-[(2,3-xylyl)methyl]-1-thia-3a-aza-3-indanyl}(3-fluoro-5-toluidino)formaldehyde]",99%,100%,–
"CS(=O)(=O)Nc1c(Cc2cccc3ccccc23)cc(=O)n2c1SC[C@H]2C(=O)Nc1ccccc1 [Example 25, Anilino{7-(methylsulfonylamino)-6-[(1-naphthyl)methyl]-4-oxo-1-thia-3a-aza-3-indanyl}formaldehyde]",–,97%,97%
"Cc1ccc(NC(=O)[C@@H]2CSc3c(C4CC4)c(Cc4ccc(Cl)cc4)cc(=O)n32)cc1 [Example 21, {(3R)-6-[(p-Chlorophenyl)methyl]-7-cyclopropyl-4-oxo-1-thia-3a-aza-3-indanyl}(p-toluidino)formaldehyde]",99%,–,–
"O=c1cc(Cc2cccc3ccccc23)c(C2CC2)c2n1[C@H](c1nc(-c3ccccc3)n[nH]1)CS2 [Example 22, (3R)-7-Cyclopropyl-6-[(1-naphthyl)methyl]-3-(5-phenyl-2H-1,2,4-triazol-3-yl)-1-thia-3a-aza-4-indanone]",98%,100%,–
"COc1c(Cc2cccc3ccccc23)c(N)c(=O)n2c1SC[C@H]2C(=O)Nc1ccccc1 [Example 6, {(3R)-5-Amino-7-methoxy-6-[(1-naphthyl)methyl]-4-oxo-1-thia-3a-aza-3-indanyl}anilinoformaldehyde]",63%,100%,–
